The values below come from ChEMBL document CHEMBL5096176, “AAA ATPases as therapeutic targets: Structure, functions, and small-molecule inhibitors” (Eur J Med Chem, 2021).

The nature of series [1]: Selectivity index, ratio of CC50 for MDCK cells to EC50 for Amantadine-resistant Influenza A virus (A/Washington/29/2009 (H1N1)) infected in MDCK cells. The class given is toxicity, cell-based. Particulars: dog, read-out: Ratio CC50/EC50.
In series [2] the test system is Influenza A virus. As to the kind of experiment: Antiviral activity against Amantadine-resistant Influenza A virus (A/WSN/1933 (H1N1)) infected in MDCK cells over expressing ST6Gal I assessed as inhibition of viral replication by plaque assay. The series is classed as functional, organism-based.
Series [3] has as its system Influenza A virus. As to the kind of experiment: Antiviral activity against Oseltamivir-resistant Influenza A virus (A/North Carolina/39/2009 (H1N1)) infected in MDCK cells over expressing ST6Gal I assessed as inhibition of viral replication by plaque assay. The class given is functional, organism-based.
Series [4] has as its system Influenza A virus. The series is described as follows: Antiviral activity against Amantadine -resistant Influenza A virus (A/Washington/29/2009 (H1N1)) infected in MDCK cells overexpressing ST6Gal I assessed as inhibition of viral replication by plaque assay. The series is classed as functional, organism-based.
Series [5] in a line: Selectivity index, ratio of CC50 for MDCK cells to EC50 for Amantadine-resistant Influenza A virus (A/WSN/1933 (H1N1)) infected in MDCK cells. The class given is toxicity, cell-based. The following applies: dog, read-out: Ratio CC50/EC50.

Usually EC50 stands for the concentration at which the effect is half-maximal. `Cc1cc(OCc2nnc(SC3CCCC3)n2-c2cccnc2)ccc1-c1ccc(S(C)(=O)=O)cc1`: the selectivity ratio in series [1] and in series [5] was 50 each time. The EC50 in the series on Influenza A virus [2], with Influenza A virus [3] and in the series with Influenza A virus [4] was 30 nM each time.
